Experimental data reported in patent US6600069B2, “Benzene tricarboxylic acid derivatives as insulin receptor activators” (Telik, Inc., priority 2000, dated 2003).

Columns and labels:
[1] = biological target: T1, β-kinase domain of the human insulin receptor (CKD) (Homo sapiens, UniProt P06213); assay: 32P-cytoplasmic kinase domain (CKD) autophosphorylation assay; type: biochemical; conditions: 32P incorporated into CKD band, 10 minutes at room temperature, 50 μM ATP; test concentration not given
T1 construct: The complete β-kinase domain of the human insulin receptor (CKD); made in house
T1 sequence (P06213 980-1382 limits assumed): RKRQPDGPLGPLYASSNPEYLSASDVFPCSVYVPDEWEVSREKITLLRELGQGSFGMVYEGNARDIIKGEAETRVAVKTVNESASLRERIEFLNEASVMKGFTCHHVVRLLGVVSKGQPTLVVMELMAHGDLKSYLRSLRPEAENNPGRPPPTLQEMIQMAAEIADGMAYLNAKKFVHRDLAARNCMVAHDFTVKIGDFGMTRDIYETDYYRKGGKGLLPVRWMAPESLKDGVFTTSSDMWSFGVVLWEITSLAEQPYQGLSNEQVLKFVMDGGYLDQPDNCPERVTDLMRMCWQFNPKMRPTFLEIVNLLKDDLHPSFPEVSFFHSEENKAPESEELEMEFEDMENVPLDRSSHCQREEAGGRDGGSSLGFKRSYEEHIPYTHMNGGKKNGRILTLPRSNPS
Description: ^32P-cytoplasmic Kinase Domain (CKD) Autophosphorylation Assay
The complete β-kinase domain of the human insulin receptor (CKD) was expressed in, and purified from, baculovirus. CKD (4.0 μg/ml), in a solution of 29 mM HEPES (pH 7.6), 0.05% Triton X-100, 10 mM MgCl2, 2 mM MnCl2 (50 μl final volume), was combined with 50 μM ATP, and 5 μCi ^32P-ATP (3000 Ci/mmol.). A test compound, or the vehicle (DMSO), was added to a final DMSO concentration of 1%. The mixture was incubated for 10 minutes at room temperature. The reaction was terminated by the addition of 10 μl of 200 mM EDTA. A 30 μl volume was removed, mixed with 5 μl of 6× Laemmeli sodium dodecyl sulfate (SDS) treatment buffer, and heated to 95° C. for 5 minutes. A 20 μl aliquot was then run on an SDS-PAGE gel. The radioactivity incorporated into the CKD band is quantified by phosphorimaging of the gel, or scintillation counting of the excised bands.
The potency of a compound for increasing phosphorylation is expressed as a percentage of the vehicle level.

[2] = test system: 3T3 L1 fibroblasts differentiated to adipocytes; assay: Glucose transport activity (14C-2-deoxy-D-glucose uptake); type: cell-based; conditions: Mus musculus, 3T3-L1; concentration producing increase in glucose transport generally 150% of the vehicle control; insulin 5.6 nM; read-out: Glucose Transport EC (effective concentration)
Description: Glucose Transport Activity
3T3 L1 fibroblasts (ATCC) were grown in Dulbecco's modified Eagie's medium (DMEM) with 10% fetal bovine serum (FBS). The cells were plated at a density of 3×10^4 cells/well in 24-well plates. Two days after confluence was reached, the cells were treated for 3 days with […] isobutylmethylxanthine (IBMX), 1 μM dexamethasone, and 1.7 μM insulin. The cells were then transferred to DMEM with 10% fresh bovine serum with 1.7 μM insulin for 2 more days. The cells were maintained in DMEM with 10% FBS for an additional 4 days. Finally the cells were serum starved overnight in 0.1% bovine serum albumin (BSA) in DMEM prior to exposure to the test compounds.
The following day, the medium was replaced with 150 mM NaCl, 1.7 mM KCl, 0.9 mM CaCl2, K2HPO4 (pH 7.4) to which was added either the experimental compounds, or their vehicle (DMSO). Insulin or its vehicle (0.01% BSA) was diluted in the assay buffer (containing test compound or vehicle, respectively) to a final concentration of 5.6 nM. After incubation for 30 min at 37° C., 0.5 μCi/ml of ^14C-2-deoxy-D-glucose was added, and the incubation was continued for additional 30 min at 37° C. The cells were then washed 3 times with ice-cold PBS/20 mM glucose and lysed in 250 μl of lysis buffer (50 mM HEPES pH 7.6, 1% Triton X-100) for 30 min at room temperature. Radioactivity in the lysate was quantified by scintillation counting.
Once ^14C-2-deoxy-D-glucose is transported into the cell it is not released. Glucose transport is, therefore, proportional to the amount of radioactivity in the lysate. The concentration of compound necessary to produce an increase in glucose transport greater than the sum of the standard deviation of the vehicle control plus the largest standard deviation of a test sample (generally 150% of the vehicle control) was recorded as the EC (effective concentration) The results of the glucose transport activity assay are shown in Table 2,

| Compound | CKD phosphorylation (percentage of the vehicle level) [1] [%] | EC50 [2] [µM] |
| --- | --- | --- |
| O=C(O)c1cc(NC(=O)c2cc(C(=O)Nc3cc(C(=O)O)cc(C(=O)O)c3)cc(C(=O)Nc3cc(C(=O)O)cc(C(=O)O)c3)c2)cc(C(=O)O)c1 [Compound 21, 5-({3,5-bis[N-(3,5-dicarboxyphenyl)carbamoyl]phenyl}carbonylamino)benzene-1,3-dicarboxylic acid] | 97.8 | 3.2 |
| O=C(Nc1cccc(C(=O)O)c1C(=O)O)c1cc(C(=O)Nc2cccc(C(=O)O)c2C(=O)O)cc(C(=O)Nc2cccc(C(=O)O)c2C(=O)O)c1 [Compound 22, 3-({3,5-bis[N-(2,3-dicarboxyphenyl)carbamoyl]phenyl}carbonylamino)benzene-1,2-dicarboxylic acid] | 118.1 | 3.2 |
| COC(=O)c1ccccc1NC(=O)c1cc(C(=O)Nc2ccccc2C(=O)OC)cc(C(=O)Nc2ccccc2C(=O)OC)c1 [Compound 23, methyl 2-[(3,5-bis{N-[2-(methoxycarbonyl)phenyl]carbamoyl}phenyl)carbonyl-amino]benzoate] | 87.4 | 1.6 |
